How the values were obtained:
Experiment in all cases: cells
Format in all cases: functional, cell-based
Details in all cases: Homo sapiens
EM-2 = tested on: EM-2;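 further: growth inhibition of EM-2 cells, read out with a cell viability assay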
Description: SANGER: Inhibition of human EM-2 cell growth in a cell viability assay.

LB2241-RCC = tested on: LB2241-RCC;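 further: cell viability assay measuring how strongly the cultured human renal carcinoma line is prevented from growing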
Description: SANGER: Inhibition of human LB2241-RCC cell growth in a cell viability assay.

NCI-H1395 = tested on: NCI-H1395;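 further: cell viability assay read-out quantifying reduced proliferation of human NCI-H1395 cells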
Description: SANGER: Inhibition of human NCI-H1395 cell growth in a cell viability assay.

ALL-PO = tested on: ALL-PO;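 further: growth inhibition of ALL-PO cells, read out by a cell viability assay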
Description: SANGER: Inhibition of human ALL-PO cell growth in a cell viability assay.

A101D = tested on: A101D;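 further: growth inhibition of the cell line, measured with a viability assay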
Description: SANGER: Inhibition of human A101D cell growth in a cell viability assay.

CTV-1 = tested on: CTV-1;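 further: growth inhibition of the cell line, read out with a cell viability assay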
Description: SANGER: Inhibition of human CTV-1 cell growth in a cell viability assay.

NCI-H1355 = tested on: NCI-H1355;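 further: growth inhibition of human NCI-H1355 cells, read out by a cell viability assay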
Description: SANGER: Inhibition of human NCI-H1355 cell growth in a cell viability assay.

KNS-42 = tested on: KNS-42;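 further: growth inhibition of KNS-42 cells, read out with a cell viability assay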
Description: SANGER: Inhibition of human KNS-42 cell growth in a cell viability assay.

MSTO-211H = tested on: MSTO-211H
Description: SANGER: Inhibition of human MSTO-211H cell growth in a cell viability assay.

NB10 = tested on: NB10;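 further: growth inhibition of NB10 cells, read out by a cell viability assay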
Description: SANGER: Inhibition of human NB10 cell growth in a cell viability assay.

HOP-62 = tested on: HOP-62;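 further: cell growth inhibition determined with a viability assay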
Description: SANGER: Inhibition of human HOP-62 cell growth in a cell viability assay.

TGBC1TKB = tested on: TGBC1TKB;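 further: growth inhibition of TGBC1TKB cells, read out by a cell viability assay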
Description: SANGER: Inhibition of human TGBC1TKB cell growth in a cell viability assay.

U-266 = tested on: U-266
Description: SANGER: Inhibition of human U-266 cell growth in a cell viability assay.

RH-1 = tested on: RH-1;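 further: growth inhibition of human RH-1 cells, read out with a cell viability assay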
Description: SANGER: Inhibition of human RH-1 cell growth in a cell viability assay.

DSH1 = tested on: DSH1;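 further: growth inhibition of human DSH1 cells, measured with a cell viability readout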
Description: SANGER: Inhibition of human DSH1 cell growth in a cell viability assay.

MFM-223 = tested on: MFM-223
Description: SANGER: Inhibition of human MFM-223 cell growth in a cell viability assay.

HC-1 = tested on: HC-1;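 further: growth inhibition of HC-1 cells measured by a cell viability assay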
Description: SANGER: Inhibition of human HC-1 cell growth in a cell viability assay.

GB-1 = tested on: GB-1;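 further: growth of GB-1 cells judged by a viability assay, IC50 marks the concentration inhibiting growth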
Description: SANGER: Inhibition of human GB-1 cell growth in a cell viability assay.

SJSA-1 = tested on: SJSA-1;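 further: growth inhibition of human SJSA-1 cells, read out through a cell viability measurement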
Description: SANGER: Inhibition of human SJSA-1 cell growth in a cell viability assay.

NCI-H1650 = tested on: NCI-H1650;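 further: growth inhibition of human NCI-H1650 cells measured by a cell viability assay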
Description: SANGER: Inhibition of human NCI-H1650 cell growth in a cell viability assay.

TGBC24TKB = tested on: TGBC24TKB;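 further: growth inhibition of human TGBC24TKB cells, read out with a cell viability assay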
Description: SANGER: Inhibition of human TGBC24TKB cell growth in a cell viability assay.

NCI-H747 = tested on: NCI-H747;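 further: growth inhibition of human NCI-H747 cells, read out by a cell viability assay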
Description: SANGER: Inhibition of human NCI-H747 cell growth in a cell viability assay.

SNU-C2B = tested on: SNU-C2B;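 further: cell viability readout used to measure compound-driven suppression of SNU-C2B cell proliferation, IC50 marking half-maximal growth inhibition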
Description: SANGER: Inhibition of human SNU-C2B cell growth in a cell viability assay.

LAMA-84 = tested on: LAMA-84;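 further: growth inhibition of LAMA-84 cells, read out with a cell viability assay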
Description: SANGER: Inhibition of human LAMA-84 cell growth in a cell viability assay.

KNS-81-FD = tested on: KNS-81-FD;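 further: growth inhibition of KNS-81-FD cells, read out with a cell viability assay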
Description: SANGER: Inhibition of human KNS-81-FD cell growth in a cell viability assay.

GR-ST = tested on: GR-ST
Description: SANGER: Inhibition of human GR-ST cell growth in a cell viability assay.

NCI-H69 = tested on: NCI-H69;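 further: growth inhibition of the cell line, read out with a cell viability assay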
Description: SANGER: Inhibition of human NCI-H69 cell growth in a cell viability assay.

DMS-114 = tested on: DMS-114
Becker = tested on: Becker;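 further: growth inhibition of Becker cells, read out with a cell viability assay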
Description: SANGER: Inhibition of human Becker cell growth in a cell viability assay.

NB13 = tested on: NB13;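 further: cell viability readout measuring growth inhibition of human NB13 cells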
Description: SANGER: Inhibition of human NB13 cell growth in a cell viability assay.

TE-12 = tested on: TE-12;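 further: growth inhibition of TE-12 cells, read out by a cell viability assay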
Description: SANGER: Inhibition of human TE-12 cell growth in a cell viability assay.

LB1047-RCC = tested on: LB1047-RCC;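 further: inhibition of cell growth, determined with a cell viability assay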
Description: SANGER: Inhibition of human LB1047-RCC cell growth in a cell viability assay.

COLO-320-HSR = tested on: COLO-320-HSR;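 further: growth inhibition of COLO-320-HSR cells, determined with a cell viability assay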
Description: SANGER: Inhibition of human COLO-320-HSR cell growth in a cell viability assay.

TE-9 = tested on: TE-9;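 further: cell growth inhibition, measured with a cell viability readout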
Description: SANGER: Inhibition of human TE-9 cell growth in a cell viability assay.

HCC1187 = tested on: HCC1187;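 further: growth inhibition of HCC1187 cells, read out with a cell viability assay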
Description: SANGER: Inhibition of human HCC1187 cell growth in a cell viability assay.

CTB-1 = tested on: CTB-1
Description: SANGER: Inhibition of human CTB-1 cell growth in a cell viability assay.

NCI-H720 = tested on: NCI-H720;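 further: growth inhibition of human NCI-H720 cells determined by a cell viability assay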
Description: SANGER: Inhibition of human NCI-H720 cell growth in a cell viability assay.

SNB-75 = tested on: SNB-75;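 further: cell viability assay measuring growth inhibition of human SNB-75 cells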
Description: SANGER: Inhibition of human SNB75 cell growth in a cell viability assay.

Mo = tested on: Mo
Description: SANGER: Inhibition of human Mo-T cell growth in a cell viability assay.

A388 = tested on: A388;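 further: growth inhibition of human A388 cells, read out with a cell viability assay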
Description: SANGER: Inhibition of human A388 cell growth in a cell viability assay.

CAS-1 = tested on: CAS-1;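 further: growth inhibition of CAS-1 cells, measured with a cell viability assay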
Description: SANGER: Inhibition of human CAS-1 cell growth in a cell viability assay.

KGN = tested on: KGN;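 further: growth inhibition of KGN cells, read out with a cell viability assay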
Description: SANGER: Inhibition of human KGN cell growth in a cell viability assay.

ES1 = tested on: ES1;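 further: growth inhibition of ES1 cells, read out with a cell viability assay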
Description: SANGER: Inhibition of human ES1 cell growth in a cell viability assay.

NEC8 = tested on: NEC8;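 further: growth inhibition of human NEC8 cells, read out by a cell viability assay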
Description: SANGER: Inhibition of human NEC8 cell growth in a cell viability assay.

AM-38 = tested on: AM-38;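 further: growth inhibition of AM-38 cells of human origin, read out by a cell viability assay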
Description: SANGER: Inhibition of human AM-38 cell growth in a cell viability assay.

L-428 = tested on: L-428
Description: SANGER: Inhibition of human L-428 cell growth in a cell viability assay.

SK-LMS-1 = tested on: SK-LMS-1;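 further: growth inhibition of human SK-LMS-1 cells, read out with a cell viability assay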
Description: SANGER: Inhibition of human SK-LMS-1 cell growth in a cell viability assay.

KINGS-1 = tested on: KINGS-1;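 further: cell viability assay measuring suppression of KINGS-1 cell growth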
Description: SANGER: Inhibition of human KINGS-1 cell growth in a cell viability assay.

LS-1034 = tested on: LS-1034
Description: SANGER: Inhibition of human LS-1034 cell growth in a cell viability assay.

NCI-H226 = tested on: NCI-H226;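 further: cell viability read-out used to gauge growth inhibition of the cells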
Description: SANGER: Inhibition of human NCI-H226 cell growth in a cell viability assay.

TE-8 = tested on: TE-8;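 further: growth inhibition of TE-8 cells, measured with a cell viability readout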
Description: SANGER: Inhibition of human TE-8 cell growth in a cell viability assay.

HCC2218 = tested on: HCC2218;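 further: cell viability assay read-out, with IC50 given as the concentration that inhibits growth of the cell line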
Description: SANGER: Inhibition of human HCC2218 cell growth in a cell viability assay.

EOL1 = tested on: EOL1;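 further: growth inhibition of EoL-1 cells, read out by a cell viability assay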
Description: SANGER: Inhibition of human EoL-1-cell cell growth in a cell viability assay.

COLO-668 = tested on: COLO-668
Description: SANGER: Inhibition of human COLO-668 cell growth in a cell viability assay.

RKO = tested on: RKO;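 further: growth inhibition of human RKO cells, read out with a cell viability assay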
Description: SANGER: Inhibition of human RKO cell growth in a cell viability assay.

SF-126 = tested on: SF-126;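 further: growth inhibition of human SF126 cells, read out with a cell viability assay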
Description: SANGER: Inhibition of human SF126 cell growth in a cell viability assay.

KY821 = tested on: KY821;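 further: growth inhibition of human KY821 cells, read out by a cell viability assay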
Description: SANGER: Inhibition of human KY821 cell growth in a cell viability assay.

CGTH-W-1 = tested on: CGTH-W-1
Description: SANGER: Inhibition of human CGTH-W-1 cell growth in a cell viability assay.

COLO-800 = tested on: COLO-800
Description: SANGER: Inhibition of human COLO-800 cell growth in a cell viability assay.

MC116 = tested on: MC116
Description: SANGER: Inhibition of human MC116 cell growth in a cell viability assay.

SF-539 = tested on: SF-539
Description: SANGER: Inhibition of human SF539 cell growth in a cell viability assay.

HD-MY-Z = tested on: HD-MY-Z
Description: SANGER: Inhibition of human HD-MY-Z cell growth in a cell viability assay.

HDLM-2 = tested on: HDLM-2
Description: SANGER: Inhibition of human HDLM-2 cell growth in a cell viability assay.

SK-N-DZ = tested on: SK-N-DZ
Description: SANGER: Inhibition of human SK-N-DZ cell growth in a cell viability assay.

NCI-H82 = tested on: NCI-H82
Description: SANGER: Inhibition of human NCI-H82 cell growth in a cell viability assay.

BB30-HNC = tested on: BB30-HNC
Description: SANGER: Inhibition of human BB30-HNC cell growth in a cell viability assay.

Measured: IC50

C/C(O)=C(\C#N)C(=O)Nc1cc(Br)ccc1Br
> 16 µM: all assays above

— ChEMBL document CHEMBL1201861, “Genomics of Drug Sensitity in Cancer screening data, Wellcome Trust Sanger Institute”
